Data from patent US8158621B2, “Methods of treating or preventing autoimmune diseases with 2,4-pyrimidinediamine compounds” (Rigel Pharmaceuticals, Inc., priority 2002, dated 2012).

What follows are compounds tested on Human Jurkat T-cells (clone N) (assay: Jurkat T-cell activation (anti-TCR, CD69 upregulation)). Details: not given.
Assay type: cell-based
Procedure: The screening process took place over three days.
On the first day of the screen, cultured cells were spun down on a centrifuge (1000 rpm, 5 minutes) and resuspended at 3.0×10^5 cells/ml in RPMI+5% FBS. On the second day of the screen, cells were spun down at 1000 rpm for 5 minutes and resuspended in RPMI+5% FBS at 1.3×10^5 cells/ml. 85 μl of this cell suspension were added to the wells of U-bottom 96 well plates (Corning) 85 μl of compound or diluted RPMI+5% FBS (as a control) only was added to each well and incubated at 37° C. for 1 hour. The cells were then stimulated with anti-TCR (C305) at: 500 ng/ml by adding a 8× solution in 25 μl to the plated cells. The cells were then incubated at 37° C. for 20 hrs.
On the third day of the screen, the plates were spun at 2500 RPM for 1 minute on a Beckman GS-6R centrifuge, and the medium was then removed. 50 μl staining solution (1:100 dilution of anti-CD69-APC antibody (Becton Dickenson) in PBS+2% FBS) was then added to each well, followed by incubation of the plates 4 degrees for 20 minutes in the dark. 150 μl of wash buffer (PBS+2% FBS) was then added to each well, and the plates were spun at 3000 RPM for 1 minute. The supernatant was again removed, and the pellet was resuspended by vortexing gently. 75 μl of PBS+2% FBS +Cytofix (1:4 dilution) was then added, the plates gently vortexed and wrap in aluminum foil. Cells from the plates were read using a flow cytometer coupled to an automated liquid handling system.
Varied concentrations of compound were compared to solvent only to determine the inhibition of T-cell activation IC50 of each compound.

Row | Compound | IC50 [µM]
1 | CC(C)(C)c1ccc(Nc2nc(Nc3cccc(OCCO)c3)ncc2F)cc1 [Compound R926728] | > 10
2 | O=C(CNc1cccc(Nc2ncc(F)c(Nc3cccc(O)c3)n2)c1)NCCN1CCOCC1 [Compound R950226] | 2.92
3 | O=C(COc1cccc(Nc2ncc(F)c(Nc3cccc(O)c3)n2)c1)N1CCNCC1 [Compound R926772] | 2.04
4 | CCOC(=O)COc1cccc(Nc2ncc(F)c(Nc3ccc(-n4cnc(Cl)c4Cl)cc3)n2)c1 [Compound R926809] | > 10
5 | COC(=O)C(C)Oc1ccc(Nc2ccnc(Nc3ccc(OC(C)C(=O)OC)cc3)n2)cc1 (racemic) [Compound R926257] | > 10
6 | O=C(COc1cccc(Nc2ncc(F)c(Nc3ccc4c(c3)OCCO4)n2)c1)NCCO [Compound R926505] | 1.15
7 | COC(=O)Cn1ncc2cc(Nc3ncc(F)c(Nc4ccc(OC(C)C)cc4)n3)ccc21 [Compound R935222] | 3.54
8 | CCOC(=O)COc1cccc(Nc2nc(Nc3cccc(C(C)(C)C)c3)ncc2F)c1 [Compound R940266] | > 10
9 | O=C(COc1cccc(Nc2ncc(F)c(Nc3ccc4c(c3)OCCO4)n2)c1)N1CCNCC1 [Compound R926503] | 2.6
10 | COC(=O)c1ccc(Cn2cc3ccc(Nc4ncc(F)c(Nc5ccc(OC(C)C)cc5)n4)cc3n2)c(OC)c1 [Compound R935338] | 5.89
11 | Cn1nnc(COc2ccc(Nc3ncc(F)c(Nc4ccc(OCc5nnn(C)n5)cc4)n3)cc2)n1 [Compound R945046] | 4.08
12 | O=C(CNc1cccc(Nc2ncc(F)c(Nc3cccc(O)c3)n2)c1)N1CCOCC1 [Compound R950221] | 20.3
13 | O=C(NCCO)c1cc2cc(Nc3ncc(F)c(Nc4ccc5oc(C(=O)NCCO)cc5c4)n3)ccc2o1 [Compound R950167] | > 10
14 | CC(C)(C)c1cccc(Nc2nc(Nc3cccc(OCC(=O)NCC(O)CO)c3)ncc2F)c1 (stereo not drawn) [Compound R940277] | 1.22
15 | CNC(=O)COc1cccc(Nc2nc(Nc3cc(OC)cc(OC)c3)ncc2F)c1 [Compound R926810] | 5.07
16 | CCOC(=O)COc1cccc(Nc2ncc(F)c(Nc3cc(OC)cc(OC)c3)n2)c1 [Compound R926795] | > 10
17 | CCOC(=O)COc1cccc(Nc2nc(Nc3ccc4c(c3)OCCO4)ncc2F)c1 [Compound R926774] | 12.7
18 | CNC(=O)CCn1ncc2cc(Nc3ncc(F)c(Nc4ccc5c(c4)OCCO5)n3)ccc21 [Compound R935309] | 0.779
19 | COC(=O)Cn1ncc2cc(Nc3nc(Nc4cccc(O)c4)ncc3F)ccc21 [Compound R935250] | 6.24
20 | CCOC(=O)C(C)(C)c1ccc(Nc2nc(Nc3ccc(OCC(=O)OC)cc3)ncc2F)cc1 [Compound R935157] | > 10
21 | CCOC(=O)C(C)(C)c1ccc(Nc2ncc(F)c(Nc3ccc(OC(C)C)cc3)n2)cc1 [Compound R935150] | 20.4

The remaining lines, values ahead:

Row | IC50 [µM] | Compound
22 | 3.33 | CNC(=O)COc1cccc(Nc2ncc(F)c(Nc3ccc4c(c3)N(C)C(=O)CO4)n2)c1 [Compound R909260]
23 | 1.71 | CNC(=O)COc1cccc(Nc2ncc(F)c(Nc3cnc4c(c3)OCC(=O)N4)n2)c1 [Compound R945242]
24 | > 10 | COC(=O)COc1ccc(Nc2ncc(F)c(Nc3ccc(OC(C)C)cc3)n2)cc1 [Compound R935159]
25 | > 10 | COC(=O)c1ccc(Cn2ncc3ccc(Nc4ncc(F)c(Nc5cccc(O)c5)n4)cc32)c(OC)c1 [Compound R935321]
26 | > 10 | CCOC(=O)C(C)(C)Oc1cccc(Nc2ncc(F)c(Nc3cccc(O)c3)n2)c1 [Compound R926906]
27 | 3.7 | O=C(COc1cccc(Nc2ncc(F)c(Nc3cccc(O)c3)n2)c1)NCC(O)CO (stereo not drawn) [Compound R926746]
28 | 4.68 | CNC(=O)Cn1ncc2ccc(Nc3ncc(F)c(Nc4ccc5c(c4)OCCO5)n3)cc21 [Compound R935212]
29 | 9.5 | CSc1nc2ccc(Nc3ncc(F)c(Nc4cccc(O)c4)n3)cc2s1 [Compound R950212]
30 | 6.08 | COC(=O)COc1ccc(Nc2nc(Nc3ccc(OCC(N)=O)cc3)ncc2F)cc1 [Compound R945060]
31 | 0.224 | CNC(=O)COc1cccc(Nc2ncc(F)c(Nc3ccc4c(c3)C(=NO)CCO4)n2)c1 [Compound R950348]
32 | 6.16 | COC(=O)COc1cccc(Nc2ncc(F)c(Nc3ccc4c(c3)OCCO4)n2)c1 [Compound R945124]
33 | 13 | CCOC(=O)C(C)Oc1ccc(Nc2ncc(C)c(Nc3ccc(OC(C)C(=O)OCC)cc3)n2)cc1 (racemic) [Compound R926259]
34 | 3.09 | CNC(=O)COc1cccc(Nc2ncc(F)c(Nc3ccc(C#N)c(C)c3)n2)c1 [Compound R926851]
35 | 0.46 | Oc1cccc(Nc2ncc(F)c(Nc3ccc(OCc4nc(-c5ccccc5)no4)cc3)n2)c1 [Compound R935138]
36 | 3.19 | NC(=O)COc1ccc(Nc2nc(Nc3ccc4c(c3)OCCO4)ncc2F)cc1 [Compound R945171]
37 | 1.7 | OCCCn1ncc2ccc(Nc3ncc(F)c(Nc4ccc5c(c4)OCCO5)n3)cc21 [Compound R935287]
38 | 17.7 | CCOC(=O)COc1ccc(Nc2ncc(F)c(Nc3cccc(O)c3)n2)cc1 [Compound R926395]
39 | 6.08 | Cc1nc(COc2cccc(Nc3ncc(F)c(Nc4ccc(OC(C)C)cc4)n3)c2)no1 [Compound R945129]
40 | 2.54 | COC(=O)c1ccc(Cn2cc3ccc(Nc4ncc(F)c(Nc5cccc(O)c5)n4)cc3n2)c(OC)c1 [Compound R935337]
41 | 5.13 | CN1CCN(C(=O)CNc2cccc(Nc3ncc(F)c(Nc4ccc5c(c4)OCCO5)n3)c2)CC1 [Compound R950194]
42 | 1.77 | OCCNc1cccc(Nc2ncc(F)c(Nc3ccc4c(c3)OCCO4)n2)c1 [Compound R950208]
43 | 0.664 | CC(O)CNC(=O)COc1cccc(Nc2ncc(F)c(Nc3ccc4c(c3)NCCO4)n2)c1 (stereo not drawn) [Compound R909251]

Same assay, conditions: Homo sapiens

Row | Compound | IC50 [µM]
44 | CC(C)NC(=O)Oc1cccc(Nc2ncc(F)c(Nc3cccc(OC(=O)NC(C)C)c3)n2)c1 [Compound R926412] | 2.38
45 | Cc1ccc([N+](=O)[O-])cc1Nc1ncc(F)c(Nc2cc([N+](=O)[O-])ccc2C)n1 [Compound R950146] | > 10

Same assay, conditions: Homo sapiens, Jurkat

Row | Compound | IC50 [µM]
46 | O=C(O)c1cc2cc(Nc3ncc(F)c(Nc4cccc(O)c4)n3)ccc2[nH]1 [Compound R926479] | > 10
47 | CC(=O)c1cccc(Nc2ncc(F)c(Nc3cccc(C(C)=O)c3)n2)c1 [Compound R950376] | 18.1
48 | COc1cc(-c2ccccc2)c(C)cc1Nc1ccnc(Nc2cc(C)c(-c3ccccc3)cc2OC)n1 [Compound R925808] | > 10
49 | OCCOc1cccc(Nc2nc(Nc3cccc(O)c3)ncc2F)c1 [Compound R935170] | 6.03
50 | Fc1cnc(NC(c2ccccc2)c2ccccc2)nc1NC(c1ccccc1)c1ccccc1 [Compound R935005] | > 10

Results, then the compound that gave them:

Row | IC50 [µM] | Compound
51 | > 10 | COc1ccc(-c2ccccc2)cc1Nc1ncc(Br)c(Nc2cc(-c3ccccc3)ccc2OC)n1 [Compound R925799]
52 | > 10 | Oc1cccc(Nc2nc(Nc3cccc(-c4nnn[nH]4)c3)ncc2F)c1 [Compound R926842]
53 | 1.03 | O=C1COc2cc(Nc3ncc(F)c(Nc4cccc(O)c4)n3)ccc2N1 [Compound R908699]
54 | > 10 | COC(=O)c1ccc(Nc2ncc(F)c(Nc3ccc(C(=O)OC)c(O)c3)n2)cc1O [Compound R945056]
55 | > 10 | CC(C)(C)c1ccc(Nc2nc(Nc3ccc4c(c3)CC(C(=O)O)O4)ncc2F)cc1 (stereo not drawn) [Compound R926720]
56 | 9.45 | CNC(=O)c1cc2cc(Nc3ncc(F)c(Nc4cccc(C(C)(C)C)c4)n3)ccc2o1 [Compound R940291]
57 | 7.07 | CC(C)(CO)c1ccc(Nc2ncc(F)c(Nc3cccc(O)c3)n2)cc1 [Compound R935153]
58 | > 10 | O=C(O)c1ccc(Nc2ncc(F)c(Nc3ccc(C(=O)O)c(O)c3)n2)cc1O [Compound R945061]
59 | 10.9 | Oc1cccc(Nc2nc(NCCN3CCN(Cc4ccccc4)CC3)ncc2F)c1 [Compound R940261]
60 | 4.66 | Oc1ccc(-c2cnc(Nc3ccc4c(c3)OCCO4)nc2Nc2ccc3c(c2)OCCO3)cc1 [Compound R925816]
61 | 17.7 | CCOc1ccc(Nc2ncc(F)c(Nc3ccc(OC)c(OC)c3)n2)cc1 [Compound R926145]
62 | 9.47 | CC(=O)Nc1ccc(Nc2ncc(F)c(Nc3ccc(NC(C)=O)cc3)n2)cc1 [Compound R940222]
63 | > 10 | COCCOc1cccc(Nc2ncc(F)c(Nc3cccc(OCCOC)c3)n2)c1 [Compound R935076]
64 | 5.45 | CCOc1ccc(Nc2ncc(F)c(Nc3ccc(OCC)c(N)c3)n2)cc1N [Compound R950139]
65 | > 10 | Nc1cc(Nc2ccnc(Nc3ccc(Nc4ccccc4)c(N)c3)n2)ccc1Nc1ccccc1 [Compound R950123]
66 | 3.57 | OCC(O)COc1ccc(Nc2ncc(F)c(Nc3cccc(O)c3)n2)cc1 (stereo not drawn) [Compound R935180]
67 | > 10 | CC(C)c1ccc(Nc2ncc(F)c(Nc3ccc4c(c3)OCCO4)n2)cc1 [Compound R926790]
68 | > 10 | Oc1cccc(Nc2ncc(-c3ccccc3)c(Nc3cccc(O)c3)n2)c1 [Compound R925783]
69 | 7.19 | Brc1cnc(Nc2ccc3c(c2)OCCO3)nc1Nc1ccc2c(c1)OCCO2 [Compound R925771]
